From US10428051B2 (priority 2015, dated 2019)

Molecular target: human σ1 receptor (Homo sapiens, UniProt Q99720)
Assay: biochemical
Type: binding
Parameters: μ and σ1 dual (binding to the σ1 receptor and the μ-opioid receptor expressed as Ki): key to the marks not given beside the values

human σ1 receptor, sequence (Q99720 whole entry): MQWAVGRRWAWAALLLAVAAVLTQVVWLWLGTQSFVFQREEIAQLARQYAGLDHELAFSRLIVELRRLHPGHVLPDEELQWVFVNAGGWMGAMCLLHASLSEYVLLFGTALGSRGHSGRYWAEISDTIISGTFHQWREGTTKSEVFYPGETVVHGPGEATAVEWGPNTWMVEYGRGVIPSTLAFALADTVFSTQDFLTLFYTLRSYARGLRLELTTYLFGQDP

`CCC(=O)N(CC1(N2CCN(C(C)CC)CC2)CCOCC1)c1ccccn1` (centres unmarked) [Example 154, N-((4-(4-sec-butylpiperazin-1-yl)tetrahydro-2H-pyran-4-yl)methyl)-N-(pyridin-2-yl)propionamide] and `CCC(=O)N(CC1(N2CCN(C(CO)c3ccccc3)CC2)CCOCC1)c1ccccn1` (centres unmarked) [Example 181, N-((4-(4-(2-hydroxy-1-phenylethyl)piperazin-1-yl)tetrahydro-2H-pyran-4-yl)methyl)-N-(pyridin-2-yl)propionamide] cannot be ordered by Ki: > 500 nM for the first, > 500 nM for the second.

`CCC(=O)N(CC1(N2CCN(CCC(C)C)CC2)CCOCC1)c1ncccc1F` [Example 155, N-(3-fluoropyridin-2-yl)-N-((4-(4-isopentylpiperazin-1-yl)tetrahydro-2H-pyran-4-yl)methyl)propionamide] and `CCC(=O)N(CC1(N2CCN(CCOC(C)C)CC2)CCOCC1)c1ncccc1F` [Example 157, N-(3-fluoropyridin-2-yl)-N-((4-(4-(2-isopropoxyethyl)piperazin-1-yl)tetrahydro-2H-pyran-4-yl)methyl)propionamide] cannot be ordered by Ki: < 500 nM for the first, < 500 nM for the second.

`CCC(=O)N(CC1(N2CCN(CCC(C)C)CC2)CCOC(C)(C)C1)c1cccc(C(F)(F)F)n1` (centres unmarked) [Example 159, N-((4-(4-isopentylpiperazin-1-yl)-2,2-dimethyltetrahydro-2H-pyran-4-yl)methyl)-N-(6-(trifluoromethyl)pyridin-2-yl)propionamide] and `CCC(=O)N(CC1(N2CCN(CC(C)C)CC2)CCOC(C)(C)C1)c1cccc(C(F)(F)F)n1` (centres unmarked) [Example 160, N-((4-(4-isobutylpiperazin-1-yl)-2,2-dimethyltetrahydro-2H-pyran-4-yl)methyl)-N-(6-(trifluoromethyl)pyridin-2-yl)propionamide] cannot be ordered by Ki: < 100 nM for the first, < 500 nM for the second.

`CCC(=O)N(CC1(N2CCN(CCOC(C)C)CC2)CCOC(C)(C)C1)c1cccc(C(F)(F)F)n1` (centres unmarked) [Example 161, N-((4-(4-(2-isopropoxyethyl)piperazin-1-yl)-2,2-dimethyltetrahydro-2H-pyran-4-yl)methyl)-N-(6-(trifluoromethyl)pyridin-2-yl)propionamide] and `CCC(=O)N(CC1(N2CCN(CCOC(C)C)CC2)CC1)c1cccc(C(F)(F)F)n1` [Example 179, N-((1-(4-(2-isopropoxyethyl)piperazin-1-yl)cyclopropyl)methyl)-N-(6-(trifluoromethyl)pyridin-2-yl)propionamide] cannot be ordered by Ki: < 500 nM for the first, < 500 nM for the second.

Going from `CCC(=O)N(CC1(N2CCN(C(C)CC)CC2)CCOC(C)(C)C1)c1cccc(C(F)(F)F)n1` (centres unmarked) [Example 162, N-((4-(4-sec-butylpiperazin-1-yl)-2,2-dimethyltetrahydro-2H-pyran-4-yl)methyl)-N-(6-(trifluoromethyl)pyridin-2-yl)propionamide] to `CCC(=O)N(CC1(N2CCN(CC(C)C)CC2)CCOC2(CCCC2)C1)c1cccc(C(F)(F)F)n1` (centres unmarked) [Example 175, N-((9-(4-isobutylpiperazin-1-yl)-6-oxaspiro[4.5]decan-9-yl)methyl)-N-(6-(trifluoromethyl)pyridin-2-yl)propionamide], the Ki falls from > 500 nM to < 500 nM. The second binds more tightly here.

`CCC(=O)N(CC1(N2CCN(CCOC(C)C)CC2)CCOC(C)(C)C1)c1ccccn1` (centres unmarked) [Example 163, N-((4-(4-(2-isopropoxyethyl)piperazin-1-yl)-2,2-dimethyltetrahydro-2H-pyran-4-yl)methyl)-N-(pyridin-2-yl)propionamide] and `CCOCCN1CCN(C2(CN(C(=O)CC)c3ccccn3)CCOC(C)(C)C2)CC1` (centres unmarked) [Example 165, N-((4-(4-(2-ethoxyethyl)piperazin-1-yl)-2,2-dimethyltetrahydro-2H-pyran-4-yl)methyl)-N-(pyridin-2-yl)propionamide] cannot be ordered by Ki: > 500 nM for the first, > 500 nM for the second.

Compared with `CCC(=O)N(CC1(N2CCN(CC(C)C)CC2)CCOC(C)(C)C1)c1ccccn1` (centres unmarked) [Example 166, N-((4-(4-isobutylpiperazin-1-yl)-2,2-dimethyltetrahydro-2H-pyran-4-yl)methyl)-N-(pyridin-2-yl)propionamide], `CCC(=O)N(CC1(N2CCN(CCOC(C)C)CC2)CCOC(C)(C)C1)c1ncccc1F` (centres unmarked) [Example 167, N-(3-fluoropyridin-2-yl)-N-((4-(4-(2-isopropoxyethyl)piperazin-1-yl)-2,2-dimethyltetrahydro-2H-pyran-4-yl)methyl)propionamide] is lower in Ki: > 500 nM for the first, < 500 nM for the second.

`CCOCCN1CCN(C2(CN(C(=O)CC)c3ncccc3F)CCOC(C)(C)C2)CC1` (centres unmarked) [Example 169, N-((4-(4-(2-ethoxyethyl)piperazin-1-yl)-2,2-dimethyltetrahydro-2H-pyran-4-yl)methyl)-N-(3-fluoropyridin-2-yl)propionamide] and `CCOCCN1CCN(C2(CN(C(=O)CC)c3cccc(C#N)n3)CCOC(C)(C)C2)CC1` (centres unmarked) [Example 171, N-(6-cyanopyridin-2-yl)-N-((4-(4-(2-ethoxyethyl)piperazin-1-yl)-2,2-dimethyltetrahydro-2H-pyran-4-yl)methyl)propionamide] cannot be ordered by Ki: > 500 nM for the first, > 500 nM for the second.

Compared with `CCC(=O)N(CC1(N2CCN(CCOC(C)C)CC2)CCOC(C)(C)C1)c1cccc(C#N)n1` (centres unmarked) [Example 172, N-(6-cyanopyridin-2-yl)-N-((4-(4-(2-isopropoxyethyl)piperazin-1-yl)-2,2-dimethyltetrahydro-2H-pyran-4-yl)methyl)propionamide], `CCC(=O)N(CC1(N2CCN(CCOC(C)C)CC2)CCOC2(CCCC2)C1)c1cccc(C(F)(F)F)n1` (centres unmarked) [Example 174, N-((9-(4-(2-isopropoxyethyl)piperazin-1-yl)-6-oxaspiro[4.5]decan-9-yl)methyl)-N-(6-(trifluoromethyl)pyridin-2-yl)propionamide] is lower in Ki: > 500 nM for the first, < 500 nM for the second.

`CCC(=O)N(CC1(N2CCN(CCC(C)C)CC2)CCOC2(CCCC2)C1)c1cccc(C(F)(F)F)n1` (centres unmarked) [Example 173, N-((9-(4-isopentylpiperazin-1-yl)-6-oxaspiro[4.5]decan-9-yl)methyl)-N-(6-(trifluoromethyl)pyridin-2-yl)propionamide] and `CCOCCN1CCN(C2(CN(C(=O)CC)c3cccc(C(F)(F)F)n3)CCOC3(CCCC3)C2)CC1` (centres unmarked) [Example 176, N-((9-(4-(2-ethoxyethyl)piperazin-1-yl)-6-oxaspiro[4.5]decan-9-yl)methyl)-N-(6-(trifluoromethyl)pyridin-2-yl)propionamide] cannot be ordered by Ki: < 500 nM for the first, < 500 nM for the second.

`CCOCCN1CCC(C2(CN(C(=O)CC)c3cccc(C(F)(F)F)n3)CCOCC2)CC1` [Example 177, N-((4-(1-(2-ethoxyethyl)piperidin-4-yl)tetrahydro-2H-pyran-4-yl)methyl)-N-(6-(trifluoromethyl)pyridin-2-yl)propionamide] and `CCC(=O)N(CC1(N2CCN(CCOC3CC3)CC2)CCOCC1)c1cccc(C(F)(F)F)n1` [Example 183, N-((4-(4-(2-cyclopropoxyethyl)piperazin-1-yl)tetrahydro-2H-pyran-4-yl)methyl)-N-(6-(trifluoromethyl)pyridin-2-yl)propionamide] cannot be ordered by Ki: < 500 nM for the first, < 500 nM for the second.

Going from `CCC(=O)N(CC1(N2CCN(C(C(=O)OC)c3ccccc3)CC2)CCOCC1)c1ccccn1` (centres unmarked) [Example 180, methyl 2-phenyl-2-(4-(4-((N-(pyridin-2-yl)propionamido)methyl)tetrahydro-2H-pyran-4-yl)piperazin-1-yl)acetate] to `CCC(=O)N(CC1(N2CCN(C(C)c3ccc(F)cc3)CC2)CCOCC1)c1cccc(C(F)(F)F)n1` (centres unmarked) [Example 182, N-((4-(4-(1-(4-fluorophenyl)ethyl)piperazin-1-yl)tetrahydro-2H-pyran-4-yl)methyl)-N-(6-(trifluoromethyl)pyridin-2-yl)propionamide], the Ki falls from > 500 nM to < 500 nM.

In the case of `CCC(=O)N(CC1(N2CCN(CCN3CCOCC3)CC2)CCOCC1)c1cccc(C(F)(F)F)n1` [Example 184, N-((4-(4-(2-morpholinoethyl)piperazin-1-yl)tetrahydro-2H-pyran-4-yl)methyl)-N-(6-(trifluoromethyl)pyridin-2-yl)propionamide], the Ki is reported as > 500 nM.

`CCOCCN1CCN(C2(CN(C(=O)CC)c3ncccc3F)CCOCC2)CC1` [Example 156, N-((4-(4-(2-ethoxyethyl)piperazin-1-yl)tetrahydro-2H-pyran-4-yl)methyl)-N-(3-fluoropyridin-2-yl)propionamide] was tested, and the “μ and σ1 dual (binding to the σ1 receptor and the μ-opioid receptor expressed as Ki)” value (shortened to “μ and σ1 dual”) was “++”.
With `CCC(=O)N(CC1(N2CCN(CC(C)C)CC2)CCOCC1)c1ncccc1F` [Example 158, N-(3-fluoropyridin-2-yl)-N-((4-(4-isobutylpiperazin-1-yl)tetrahydro-2H-pyran-4-yl)methyl)propionamide] the “μ and σ1 dual” value was “++”.
In the case of `CCC(=O)N(CC1(N2CCN(CCC(C)C)CC2)CCOC(C)(C)C1)c1ccccn1` (centres unmarked) [Example 164, N-((4-(4-isopentylpiperazin-1-yl)-2,2-dimethyltetrahydro-2H-pyran-4-yl)methyl)-N-(pyridin-2-yl)propionamide], the “μ and σ1 dual” value is reported as “++”.
In the case of `CCC(=O)N(CC1(N2CCN(CCC(C)C)CC2)CCOC(C)(C)C1)c1ncccc1F` (centres unmarked) [Example 168, N-(3-fluoropyridin-2-yl)-N-((4-(4-isopentylpiperazin-1-yl)-2,2-dimethyltetrahydro-2H-pyran-4-yl)methyl)propionamide], the “μ and σ1 dual” value is reported as “++”.
For `CCC(=O)N(CC1(N2CCN(CC(C)C)CC2)CCOC(C)(C)C1)c1ncccc1F` (centres unmarked) [Example 170, N-(3-fluoropyridin-2-yl)-N-((4-(4-isobutylpiperazin-1-yl)-2,2-dimethyltetrahydro-2H-pyran-4-yl)methyl)propionamide], the “μ and σ1 dual” value was “++”.
With `CCC(=O)N(CC1(C2CCN(CC(C)C)CC2)CCOCC1)c1cccc(C(F)(F)F)n1` [Example 178, N-((4-(1-isobutylpiperidin-4-yl)tetrahydro-2H-pyran-4-yl)methyl)-N-(6-(trifluoromethyl)pyridin-2-yl)propionamide] the “μ and σ1 dual” value was “++”.
`CCC(=O)N(CC1(N2CCN(CCOCC(C)(C)O)CC2)CCOCC1)c1cccc(C(F)(F)F)n1` [Example 186, N-((4-(4-(2-(2-hydroxy-2-methylpropoxy)ethyl)piperazin-1-yl)tetrahydro-2H-pyran-4-yl)methyl)-N-(6-(trifluoromethyl)pyridin-2-yl)propionamide] was tested, and the “μ and σ1 dual” value was “++”.
